Source: PMC9090415, “Discovery of small molecule inhibitors of Plasmodium falciparum apicoplast DNA polymerase” (Journal of Enzyme Inhibition and Medicinal Chemistry, 2022)

Biological target: P. falciparum apicoplast DNA polymerase (Pf-apPOL) (Plasmodium falciparum, UniProt Q8ILY1)
Assay: Fluorescence-based high-throughput DNA polymerase assay (molecular beacon), primary screen and dose-response;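 as to % inhibition ApPOL 90': test concentration in µM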;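 as to % inhibition apPOL 180': test concentration in µM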
Format: biochemical
Conditions: for DNA Pol: 90 min, 10 µM; for IC50: supplemental file 2, sheet IC50 nontoxic compounds, Pf-apPOL
How it was run: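 Single-point screening used 10 µM compound with 20 nM polymerase, 20 nM hairpin substrate and 6 µM dNTPs for 90 min at 25 °C. Confirmatory titrations (2.5–80 µM) followed fluorescence at three times, and IC50 was derived from a fit including a cooperativity term n.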

[1] = 'DNA Pol' of the 186 hits list (primary screen result), unit not given
[2] = DRC-2, 40', concentration 40 (unit not given)
[3] = DRC-2, 180', concentration 20 (unit not given)
[4] = DRC-2, concentration 80 (unit not given)
[5] = primary screen value of the library well, unit not given

Chain of P. falciparum apicoplast DNA polymerase (Pf-apPOL) (Q8ILY1 entry or part of it): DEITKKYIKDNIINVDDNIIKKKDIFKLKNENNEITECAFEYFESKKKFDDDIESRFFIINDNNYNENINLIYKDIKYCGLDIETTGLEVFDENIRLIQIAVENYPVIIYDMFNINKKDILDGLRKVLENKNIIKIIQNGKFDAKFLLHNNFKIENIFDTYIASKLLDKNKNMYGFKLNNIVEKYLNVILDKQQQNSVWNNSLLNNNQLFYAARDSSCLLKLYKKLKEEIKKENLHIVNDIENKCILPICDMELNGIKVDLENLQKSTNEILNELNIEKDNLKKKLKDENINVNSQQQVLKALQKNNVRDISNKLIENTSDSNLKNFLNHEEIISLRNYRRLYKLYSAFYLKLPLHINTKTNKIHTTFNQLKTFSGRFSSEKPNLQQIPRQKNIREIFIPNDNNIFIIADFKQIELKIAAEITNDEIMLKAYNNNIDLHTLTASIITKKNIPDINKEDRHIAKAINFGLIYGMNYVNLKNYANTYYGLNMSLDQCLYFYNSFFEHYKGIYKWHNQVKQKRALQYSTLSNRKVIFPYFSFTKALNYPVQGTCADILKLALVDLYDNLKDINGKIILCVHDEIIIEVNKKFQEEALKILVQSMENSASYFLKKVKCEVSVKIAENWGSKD

COc1ccc(-c2c(C(F)(F)F)nn3c(=O)cc(-c4cccc([N+](=O)[O-])c4)[nH]c23)cc1 [Molecule 16, COc1ccc(cc1)c1c2[nH]c(cc(=O)n2nc1C(F)(F)F)c1cccc(c1)N(=O)=O]
DNA Pol [1]: 98 | % inhibition Apo pol 10' (DRC-1, concentration 2.5): 21.756% | % inhibition Apo pol 10' (DRC-1, concentration 5): 31.6281% | % inhibition Apo pol 10' (DRC-1, concentration 10): 53.4209% | % inhibition Apo pol 10' (DRC-1, concentration 20): 92.9592% | % inhibition Apo pol 10' (DRC-1, concentration 40): 96.2671% | % inhibition Apo pol 10' (DRC-1, concentration 80): 97.8824% | % inhibition Apol 90' (DRC-1, 90', concentration 2.5): 17.6214% | % inhibition Apol 90' (DRC-1, 90', concentration 5): 24.4098% | % inhibition Apol 90' (DRC-1, 90', concentration 10): 48.4616% | % inhibition Apol 90' (DRC-1, 90', concentration 20): 90.3483% | % inhibition Apol 90' (DRC-1, 90', concentration 40): 97.371% | % inhibition Apol 90' (DRC-1, 90', concentration 80): 97.5048% | % inhibition apPOL 180' (DRC-1, 180', concentration 2.5): 12.6653% | % inhibition apPOL 180' (DRC-1, 180', concentration 5): 14.5865% | % inhibition apPOL 180' (DRC-1, 180', concentration 10): 38.3358% | % inhibition apPOL 180' (DRC-1, 180', concentration 20): 87.8097% | % inhibition apPOL 180' (DRC-1, 180', concentration 40): 96.7933% | % inhibition apPOL 180' (DRC-1, 180', concentration 80): 96.9215% | % inhibition Apol 40' (DRC-2, 40', concentration 2.5 (unit not given)): 13% | % inhibition Apol 40' [2]: 75% | % inhibition ApPOL 90' (DRC-2, 90', concentration 5 (unit not given)): 14% | % inhibition apPOL 180' [3]: 65% | % inhibition apPOL 180' (DRC-2, 180', concentration 40 (unit not given)): 75% | % inhibition Apo pol 5' (DRC-2, concentration 2.5): 10% | % inhibition Apo pol 5' (DRC-2, concentration 5): 14% | % inhibition Apo pol 5' (DRC-2, concentration 5 (unit not given)): 14% | % inhibition Apo pol 5' (DRC-2, concentration 10): 28% | % inhibition Apo pol 5' (DRC-2, concentration 20): 58% | % inhibition Apo pol 5' (DRC-2, concentration 40): 62% | % inhibition Apo pol 5' (DRC-2, concentration 80): 65% | % inhibition Apo pol 5' [4]: 65% | % inhibition Apol 40' (DRC-2, 40', concentration 2.5): 13% | % inhibition Apol 40' (DRC-2, 40', concentration 5): 16% | % inhibition Apol 40' (DRC-2, 40', concentration 10): 33% | % inhibition Apol 40' (DRC-2, 40', concentration 20): 68% | % inhibition Apol 40' (DRC-2, 40', concentration 40): 75% | % inhibition Apol 40' (DRC-2, 40', concentration 80): 79% | % inhibition ApPOL 90' (DRC-2, 90', concentration 2.5): 13% | % inhibition ApPOL 90' (DRC-2, 90', concentration 2.5 (unit not given)): 13% | % inhibition ApPOL 90' (DRC-2, 90', concentration 5): 14% | % inhibition ApPOL 90' (DRC-2, 90', concentration 10): 31% | % inhibition ApPOL 90' (DRC-2, 90', concentration 20): 69% | % inhibition ApPOL 90' (DRC-2, 90', concentration 40): 77% | % inhibition ApPOL 90' (DRC-2, 90', concentration 80): 83% | % inhibition apPOL 180' (DRC-2, 180', concentration 2.5): 9% | % inhibition apPOL 180' (DRC-2, 180', concentration 5): 7.4% | % inhibition apPOL 180' (DRC-2, 180', concentration 10): 23% | % inhibition apPOL 180' (DRC-2, 180', concentration 20): 65% | % inhibition apPOL 180' (DRC-2, 180', concentration 40): 75% | % inhibition apPOL 180' (DRC-2, 180', concentration 80): 85% | DNA Pol [5]: 98

O=C(O)c1ccc(COc2cc([N+](=O)[O-])cc3cccnc23)cc1 [KU0058403]
DNA Pol ('DNA Pol' of the 186 hits list (screen value)): 59 | % inhibition Apo pol 10' (DRC-1, conc 2.5): 14.3649% | % inhibition Apo pol 10' (DRC-1, conc 5): 27.7405% | % inhibition Apo pol 10' (DRC-1, conc 10): 42.2641% | % inhibition Apo pol 10' (DRC-1, conc 20): 75.4082% | % inhibition Apo pol 10' (DRC-1, conc 40): 92.5507% | % inhibition Apo pol 10' (DRC-1, conc 80): 97.3906% | % inhibition Apol 90' (DRC-1, 90', conc 2.5): 7.929% | % inhibition Apol 90' (DRC-1, 90', conc 5): 14.8475% | % inhibition Apol 90' (DRC-1, 90', conc 10): 27.7051% | % inhibition Apol 90' (DRC-1, 90', conc 20): 56.1594% | % inhibition Apol 90' (DRC-1, 90', conc 40): 83.537% | % inhibition Apol 90' (DRC-1, 90', conc 80): 95.378% | % inhibition apPOL 180' (DRC-1, 180', conc 2.5): 6.111% | % inhibition apPOL 180' (DRC-1, 180', conc 5): 9.076% | % inhibition apPOL 180' (DRC-1, 180', conc 10): 18.5156% | % inhibition apPOL 180' (DRC-1, 180', conc 20): 39.8383% | % inhibition apPOL 180' (DRC-1, 180', conc 40): 74.9259% | % inhibition apPOL 180' (DRC-1, 180', conc 80): 94.2886% | % inhibition Apo pol 5' (DRC-2, conc 2.5): 17% | % inhibition Apo pol 5' (DRC-2, conc 5): 21% | % inhibition Apo pol 5' (DRC-2, conc 10): 31% | % inhibition Apo pol 5' (DRC-2, conc 20): 43% | % inhibition Apo pol 5' (DRC-2, conc 40): 55% | % inhibition Apo pol 5' (DRC-2, conc 80): 60% | % inhibition Apol 40' (DRC-2, 40', conc 2.5): 10% | % inhibition Apol 40' (DRC-2, 40', conc 5): 14% | % inhibition Apol 40' (DRC-2, 40', conc 10): 23% | % inhibition Apol 40' (DRC-2, 40', conc 20): 39% | % inhibition Apol 40' (DRC-2, 40', conc 40): 59% | % inhibition Apol 40' (DRC-2, 40', conc 80): 74% | % inhibition ApPOL 90' (DRC-2, 90', conc 2.5): 7% | % inhibition ApPOL 90' (DRC-2, 90', conc 5): 12% | % inhibition ApPOL 90' (DRC-2, 90', conc 10): 19% | % inhibition ApPOL 90' (DRC-2, 90', conc 20): 35% | % inhibition ApPOL 90' (DRC-2, 90', conc 40): 57% | % inhibition ApPOL 90' (DRC-2, 90', conc 80): 76% | % inhibition ApPOL 90' (DRC-2, 90', concentration 80): 76% | % inhibition apPOL 180' (DRC-2, 180', conc 2.5): 1.43% | % inhibition apPOL 180' (DRC-2, 180', conc 5): 2.25% | % inhibition apPOL 180' (DRC-2, 180', conc 10): 8.43% | % inhibition apPOL 180' (DRC-2, 180', conc 20): 22% | % inhibition apPOL 180' (DRC-2, 180', conc 40): 48% | % inhibition apPOL 180' (DRC-2, 180', conc 80): 76% | % inhibition apPOL 180' (DRC-2, 180', concentration 80): 76% | DNA Pol (primary screen value, "DNA Pol"): 59

O=C1CSC2=NC3=C(CCc4ccccc43)C(c3cccs3)N12 (centres unmarked) [Molecule 59]
IC50: 14.7 µM

CCOc1ccc(/C=C2\N=C(c3cc([N+](=O)[O-])cc([N+](=O)[O-])c3)OC2=O)cc1 [Molecule 97, CCOc1ccc(cc1)/C=C/1\N=C(OC1=O)c1cc(cc(c1)N(=O)=O)N(=O)=O]
DNA Pol [1]: 62 | % inhibition Apo pol 10' (DRC-1, concentration 2.5): 32.0109% | % inhibition Apo pol 10' (DRC-1, concentration 5): 55.2757% | % inhibition Apo pol 10' (DRC-1, concentration 10): 83.2599% | % inhibition Apo pol 10' (DRC-1, concentration 20): 91.8438% | % inhibition Apo pol 10' (DRC-1, concentration 40): 94.8761% | % inhibition Apo pol 10' (DRC-1, concentration 80): 92.0577% | % inhibition Apol 90' (DRC-1, 90', concentration 2.5): 15.0386% | % inhibition Apol 90' (DRC-1, 90', concentration 5): 31.639% | % inhibition Apol 90' (DRC-1, 90', concentration 10): 61.0945% | % inhibition Apol 90' (DRC-1, 90', concentration 20): 80.2984% | % inhibition Apol 90' (DRC-1, 90', concentration 40): 94.8535% | % inhibition Apol 90' (DRC-1, 90', concentration 80): 94.5175% | % inhibition apPOL 180' (DRC-1, 180', concentration 2.5): 6.537% | % inhibition apPOL 180' (DRC-1, 180', concentration 5): 16.2109% | % inhibition apPOL 180' (DRC-1, 180', concentration 10): 41.6227% | % inhibition apPOL 180' (DRC-1, 180', concentration 20): 66.1189% | % inhibition apPOL 180' (DRC-1, 180', concentration 40): 93.496% | % inhibition apPOL 180' (DRC-1, 180', concentration 80): 95.7221% | % inhibition Apol 40' (DRC-2, 40', concentration 20 (unit not given)): 68% | % inhibition Apol 40' [2]: 76% | % inhibition Apol 40' (DRC-2, 40', concentration 80 (unit not given)): 76% | % inhibition ApPOL 90' (DRC-2, 90', concentration 20 (unit not given)): 68% | % inhibition apPOL 180' [3]: 60% | % inhibition Apo pol 5' (DRC-2, concentration 2.5): 20% | % inhibition Apo pol 5' (DRC-2, concentration 5): 43% | % inhibition Apo pol 5' (DRC-2, concentration 10): 52% | % inhibition Apo pol 5' (DRC-2, concentration 20): 59% | % inhibition Apo pol 5' (DRC-2, concentration 40): 61% | % inhibition Apo pol 5' (DRC-2, concentration 80): 60% | % inhibition Apo pol 5' [4]: 60% | % inhibition Apol 40' (DRC-2, 40', concentration 2.5): 14% | % inhibition Apol 40' (DRC-2, 40', concentration 5): 38% | % inhibition Apol 40' (DRC-2, 40', concentration 10): 47% | % inhibition Apol 40' (DRC-2, 40', concentration 20): 68% | % inhibition Apol 40' (DRC-2, 40', concentration 40): 76% | % inhibition Apol 40' (DRC-2, 40', concentration 80): 76% | % inhibition ApPOL 90' (DRC-2, 90', concentration 2.5): 9% | % inhibition ApPOL 90' (DRC-2, 90', concentration 5): 33% | % inhibition ApPOL 90' (DRC-2, 90', concentration 10): 42% | % inhibition ApPOL 90' (DRC-2, 90', concentration 20): 68% | % inhibition ApPOL 90' (DRC-2, 90', concentration 40): 79% | % inhibition ApPOL 90' (DRC-2, 90', concentration 80): 80% | % inhibition apPOL 180' (DRC-2, 180', concentration 2.5): 2.15% | % inhibition apPOL 180' (DRC-2, 180', concentration 5): 19% | % inhibition apPOL 180' (DRC-2, 180', concentration 10): 28% | % inhibition apPOL 180' (DRC-2, 180', concentration 20): 60% | % inhibition apPOL 180' (DRC-2, 180', concentration 40): 81% | % inhibition apPOL 180' (DRC-2, 180', concentration 80): 84% | DNA Pol [5]: 62

O=C(O)CCS(=O)(=O)c1ccc(-c2ccc(S(=O)(=O)CCC(=O)O)cc2)cc1 [Molecule 32]
IC50: 5.7 µM

Cc1cc2[nH]c(C(=O)Nc3ccc(F)cc3)c(CN3CCOCC3)c2s1 [Molecule 60]
IC50: 21.6 µM

O=C(NNC(=O)C(F)(F)Sc1ccccc1)c1ccsc1 [Molecule 68]
IC50: 21 µM
